Structures can show the parent of a compound that is named as a salt.

This data set is described as follows: Angle of repose α as a measure of flowability and pourability. In kind it is physicochemical. The conditions noted are these: determined according to R. Voigt, Lehrbuch der pharmazeutischen Technologie, 3rd Edition 1979, p. 165. The source says: The angle of repose α of the modifications as a measure of the flowability and pourability is likewise different: [table]
In the case of `O=C(O)CCCC[C@@H]1CCSS1` [Modification mixture A/B = 1:1, trometamol salt of R-thioctic acid], the “Angle of Repose α” value was 34°.
For `O=C(O)CCCC[C@@H]1CCSS1` [Modification B, trometamol salt of R-thioctic acid], the “Angle of Repose α” value came to 32°.
Consider `O=C(O)CCCC[C@@H]1CCSS1` [Modification A, trometamol salt of R-thioctic acid], for which the “Angle of Repose α” value was found to be 46°.

(Values after patent US7030251B2, “Modifications of the trometamol salt of R-thioctic acid as well as a process for their production” (Viatris GmbH & Co KG, priority 2001, dated 2006).)
